# Laboratory results reported in PMC9311539, “Antibacterial Activity against Clinical Isolates and In Vivo Efficacy of Coralmycins” (Antibiotics, 2022).
# Read-outs that look alike come from different tables or passages of the source.
# Experiments:
# [1] = tested on: MSSA; assay: MIC, broth microdilution, clinical isolates: MSSA; format: cell-based; conditions: Staphylococcus aureus
# Experimental: (§1) To assess the MICs for antibiotic susceptibility, Gram-positive bacteria isolated from human clinical specimens were obtained from several general hospitals in Seoul, Korea, during 2002–2018. Staphylococcus aureus Giorgio and Streptococcus pneumoniae ATCC49619 were used to test in vivo efficacies against […], in mice.
# (§2) The MICs of the antimicrobial agents were determined by a twofold microdilution broth method, as described by the Clinical and Laboratory Standards Institute. Briefly, test organisms were grown on Mueller–Hinton agar (MHA, BD Difco, Sparks, MD, USA) plates, subcultured into cation-adjusted Mueller–Hinton broth (CAMHB, BD Difco, Sparks, MD, USA), and incubated for 18 h at 35 °C. For S. pneumoniae culture, 5% sheep blood (Hanil Comed, Seongnam, Korea) was added. The cultured bacteria were diluted using phosphate-buffered saline (PBS) to achieve a bacterial cell density of approximately 5 × 10^6 CFU/mL. All test organisms were loaded into 96-well plates containing serial dilutions of the antimicrobial agents to achieve a concentration of 5 × 10^4 CFU/well. The plates were incubated at 35 °C for 18–20 h and examined for bacterial growth.
# [2] = tested on: MRSA; assay: MIC, broth microdilution, clinical isolates: MRSA; format: cell-based, Staphylococcus aureus; conditions: Staphylococcus aureus, MRSA
# Experimental: as §1, §2
# [3] = tested on: CNS (coagulase-negative staphylococci); assay: MIC, broth microdilution, clinical isolates: CNS; format: cell-based
# Experimental: as §1, §2
# [4] = tested on: VRE; assay: MIC, broth microdilution, clinical isolates: VRE; format: cell-based, vancomycin-resistant Enterococcus; conditions: Enterococcus, VRE
# Experimental: as §1, §2
# [5] = tested on: S. pneumoniae; assay: MIC, broth microdilution, clinical isolates: S. pneumoniae; format: cell-based, Streptococcus pneumoniae
# Experimental: as §1, §2
# [6] = tested on: Vancomycin-sensitive E. faecalis; assay: MIC, broth microdilution, clinical isolates: vancomycin-sensitive E. faecalis; format: cell-based, Enterococcus faecalis; conditions: Enterococcus faecalis
# Experimental: as §1, §2
# [7] = tested on: Vancomycin-sensitive E. faecium; assay: MIC, broth microdilution, clinical isolates: vancomycin-sensitive E. faecium; format: cell-based, Enterococcus faecium; conditions: Enterococcus faecium
# Experimental: as §1, §2
# [8] = tested on: S. aureus Giorgio; assay: MIC against S. aureus Giorgio; format: cell-based, Staphylococcus aureus; conditions: Staphylococcus aureus
# Experimental: as §2
# [9] = tested on: S. pneumoniae ATCC49619; assay: MIC against S. pneumoniae ATCC49619; format: cell-based; conditions: Streptococcus pneumoniae, ATCC49619
# Experimental: as §2
# [10] = tested on: MRSA CCARM 3167; assay: MIC against MRSA CCARM 3167; format: cell-based; conditions: Staphylococcus aureus
# Experimental: as §2
# [11] = tested on: VRE 3; assay: MIC against VRE 3; format: cell-based, vancomycin-resistant Enterococcus; conditions: Enterococcus
# Experimental: as §2
# [12] = tested on: S. aureus Giorgio; assay: Time-kill assay, S. aureus Giorgio; format: cell-based, Staphylococcus aureus; conditions: 2× and 4× MIC, 24 h
# Experimental: (§3) Time-kill analysis was performed by the NCCLS M26-A method. The test organisms (S. aureus Giorgio, S. pneumoniae ATCC49619, MRSA CCARM 3167, and VRE 3) incubated in CAMHB for 18 h at 35 °C were diluted to 10^5 CFU/mL with fresh CAMHB, and the diluted cultures were preincubated for 2 h. For S. pneumoniae culture, 5% sheep blood (Hanil Comed, Seongnam, Korea) was added. […] Culture aliquots (0.1 mL) were removed after 0, 2, 4, 6 and 24 h of incubation, and serial 10-fold dilutions were prepared in saline as needed. The numbers of viable cells were determined on drug-free MHA plates after 20 h of incubation. A compound was considered bactericidal if the original inoculum was reduced by 3 log CFU/mL (99.9%) at each concentration or was considered bacteriostatic if the inoculum was reduced by 0–3 log CFU/mL.
# [13] = tested on: S. pneumoniae ATCC49619; assay: Time-kill assay, S. pneumoniae ATCC49619; format: cell-based, Streptococcus pneumoniae; conditions: 2× and 4× MIC, 24 h
# Experimental: as §3
# [14] = tested on: MRSA CCARM 3167; assay: Time-kill assay, MRSA CCARM 3167; format: cell-based, Staphylococcus aureus; conditions: 2× and 4× MIC, 24 h
# Experimental: as §3
# [15] = tested on: S. aureus Giorgio; assay: Neutropenic mouse thigh infection model; format: in vivo, female ICR mice; conditions: s.c. 4 and 20 mg/kg at 3 and 6 h after infection
# Experimental: (§4) For the respiratory tract infection model, neutropenic mice were anesthetized and intranasally inoculated with a 50 μL suspension of S. pneumoniae ATCC49619 (4.4 × 10^8 CFU/mL). For the thigh infection model, the neutropenic mice were administered an intramuscular injection of a 100 μL suspension of S. aureus Giorgio (1 × 10^6 CFU/mL) into both thighs. For both models, four mice were included in each group. At 2 h after infection, two mice were sacrificed, and the infected thighs or lungs (n = 4) were excised to determine the initial bacterial levels. […] At 24 h after infection, the mice were sacrificed by cervical dislocation; their thighs or lungs were removed, homogenized, serially diluted with saline, and plated onto MHA to count the number of bacteria remaining. The number of viable bacterial cells (CFU) in the thighs or lungs of vehicle- and drug-treated mice was determined.
# [16] = tested on: S. pneumoniae ATCC49619; assay: Neutropenic mouse respiratory tract infection model; format: in vivo, female ICR mice
# Experimental: as §4
# [17] = tested on: S. aureus; parameters: method as in PMID 28416551; conditions: s.c., cited from earlier work
# [18] = cited from earlier work
smiles,measurement,setting,value
CN[C@H](CC(C)C)C(=O)N[C@H]1C(=O)N[C@@H](CC(N)=O)C(=O)N[C@H]2C(=O)N[C@H]3C(=O)N[C@H](C(=O)N[C@H](C(=O)O)c4cc(O)cc(O)c4-c4cc3ccc4O)[C@H](O)c3ccc(c(Cl)c3)Oc3cc2cc(c3O[C@@H]2O[C@H](CO)[C@@H](O)[C@H](O)[C@H]2O[C@H]2C[C@](C)(N)[C@H](O)[C@H](C)O2)Oc2ccc(cc2Cl)[C@H]1O [Vancomycin],MIC50,[1],1 µg/mL
same,MIC90,[1],2 µg/mL
same,MIC50,[2],1 µg/mL
same,MIC90,[2],2 µg/mL
same,MIC50,[3],2 µg/mL
same,MIC90,[3],4 µg/mL
same,MIC50,[4],> 32 µg/mL
same,MIC90,[4],> 32 µg/mL
same,MIC90,[5]; 27 clinical isolates,0.5 µg/mL
same,MIC50,[5]; Streptococcus pneumoniae,0.25 µg/mL
same,MIC90,[5]; Streptococcus pneumoniae,0.5 µg/mL
same,MIC50,[6],2 µg/mL
same,MIC90,[6],2 µg/mL
same,MIC50,[7],1 µg/mL
same,MIC90,[7],2 µg/mL
same,MIC,[8],2 µg/mL
same,MIC,[9],0.5 µg/mL
same,MIC,[10],2 µg/mL
same,MIC,[11],64 µg/mL
same,time-kill activity,[12],bactericidal (considered bactericidal if the original inoculum was reduced by 3 log CFU/mL (99.9%) at each concentration)
same,time-kill activity,[13],bactericidal (considered bactericidal if the original inoculum was reduced by 3 log CFU/mL (99.9%) at each concentration)
same,time-kill activity,[14],bactericidal (considered bactericidal if the original inoculum was reduced by 3 log CFU/mL (99.9%) at each concentration)
same,antibacterial effect in thigh infection model,[15],bacteriostatic activity
same,in vivo effect (bacteriostatic or bactericidal),[16]; 4 mg/kg bid s.c.,bacteriostatic
same,in vivo effect (bacteriostatic or bactericidal),[16]; 20 mg/kg bid s.c.,bactericidal
same,reduction of the starting bacterial burden compared to the 2-h control group,"[16]; second trial, 20 mg/kg bid",1.46 log10 CFU/lung
same,in vivo effect,[17]; high doses of 20–320 mg/kg bid,bactericidal effects
same,in vivo effect,[17]; low doses of 0.3–5 mg/kg bid,bacteriostatic effects
same,bound to plasma proteins,[18],10–50%
